# Patent US10071083B2 (Ovid Therapeutics Inc., priority 2017, dated 2018)
# Tests used:
# tinnitus = details: published studies reviewed by Jufas and Wood (2015); cited from earlier work
# [1] = test system: healthy adults subjected to a 5-hour sleep restriction; assay: Study of daytime performance after sleep restriction (Example 4); assay type: in vivo, human
# Method: The study included a 2-night single-blind placebo run-in period, a 4-night double-blind treatment period during which sleep was restricted to 5 hours and a 2-night single-blind placebo run-out period. The study included healthy male and female volunteers 18 to <55 years of age.
# 2-night run-in period: All patients received placebo
# 2-night run-out period: All patients received placebo
# The primary endpoints included observations based on the Multiple Sleep Latency Test (MSLT) and Slow Wave Sleep (SWS) assessment.
# [2] = test system: healthy, male and female subjects; assay: Study of driving performance after gaboxadol administration (Example 3); assay type: in vivo, human
# From the text: The study participants included healthy, male and female subjects between 21 and 45 years of age, with a valid drivers license for at least 3 years.
# Following a cognitive and psychomotor test battery, the driving test started at 9 am and lasted for one hour.
# [3] = human, in vivo
# patients = patients with a history of drug abuse who received gaboxadol; cited from earlier work
structure (smiles),measurement,setting,value
Cc1nnc2n1-c1ccc(Cl)cc1C(c1ccccc1)=NC2 [alprazolam],efficacy in treating tinnitus,tinnitus,opposing results
CN1C(=O)CN=C(c2ccccc2)c2cc(Cl)ccc21 [diazepam],efficacy in treating tinnitus,tinnitus,not effective
"Oc1noc2c1CCNC2 [gaboxadol, 4,5,6,7-tetrahydroisoxazolo [5,4-c]pyridine-3-ol]","biophysiological measures of stress (heart rate variability, cortisol levels, catecholamine levels, body temperature) versus placebo",[1]; gaboxadol 15 mg versus placebo,no differences
same,"daytime performance, effect sizes of the neurocognitive battery",[1]; gaboxadol 15 mg versus placebo,no strong evidence that gaboxadol improves daytime performance
same,daytime sleepiness during the Sleep Restriction period versus placebo (MSLT),"[1]; gaboxadol 15 mg, 4 nights, sleep restricted to 5 hours, p=0.047, 1 sided",significantly less daytime sleepiness
same,"MSLT longer than placebo, on average","[1]; gaboxadol 15 mg, last two Sleep Restriction days",2.01 min
same,"Karolinska Sleepiness Score (KSS) less than placebo, on average","[1]; gaboxadol 15 mg, last two Sleep Restriction days, LDA model, p=0.058, 1 sided",0.68
same,"SWS longer than placebo, on average","[1]; gaboxadol 15 mg, last two Sleep Restriction nights",20.53 min
same,slow wave sleep (SWS) during the Sleep Restriction period versus placebo,"[1]; gaboxadol 15 mg, p<0.001, 1 sided",significantly more SWS
same,"most frequent adverse events, middle-of-the-night treatment",[2]; gaboxadol 15 mg at 4 am,"dizziness, nausea and somnolence"
same,effect on driving after evening dose compared with blood alcohol,"[2]; gaboxadol 15 mg evening dose, comparison with 0.05% blood alcohol concentration",less than the effect observed at a 0.05% blood alcohol concentration
same,"most frequent adverse events, evening treatment",[2]; gaboxadol 15 mg in the evening,headache and somnolence
same,CL (in the CL/F line),"[3]; iv, 10 mg",438 mL/min
same,dose dependence of plasma AUC0-∞ and Cmax,[3]; po,dose proportional increases
same,psychiatric adverse events,patients,steep increase
O=C1CN=C(c2ccccc2Cl)c2cc([N+](=O)[O-])ccc2N1 [Clonazepam],efficacy in treating tinnitus,tinnitus,effective
